Test results: ChEMBL document CHEMBL4420076, “Amylin and calcitonin receptor agonist” (2017)
Values belong to the molecule of their own block, whether it stands above or below them. Peptide text beside a SMILES is read from it. * marks the point of attachment. C18 diacid = O=C(O)CCCCCCCCCCCCCCCCC(=O)*

Experiments:
[1] = Solubility in 100 mM bistrispropane buffer at pH 7.5 incubated for 18 hrs by UPLC analysis; assay type: physicochemical
[2] = Dose normalized AUC in LYD pig at 1.6 mM, sc co-formulated with 1.6 mM liraglutide by LC-MS analysis; assay type: ADME, organism-based, Sus scrofa; settings: in vivo, 1600 µM
[3] = test system: Rattus norvegicus; assay: (§1) Reduction in body weight in Sprague-Dawley rat model of diet-induced obesity assessed as relative body weight at 3.7 ug/kg, sc dosed dosed once daily during 0 to 15 days and measured on day 15 relative to initial body weight (reference value: 98.8 +/- 0.8%); assay type: functional; parameters: scale not given: the % may be the effect or the level left
[4] = test system: Rattus norvegicus; assay: Reduction in body weight in Sprague-Dawley rat model of diet-induced obesity assessed as relative body weight at 3.7 ug/kg, sc dosed dosed once daily during 0 to 28 days and measured on day 28 relative to initial body weight (reference value: 99.8 +.- 1.1%); assay type: functional; parameters: scale not given: the % may be the effect or the level left
[5] = Half life in LYD pig at 1.6 mM, sc co-formulated with 1.6 mM liraglutide by LC-MS analysis; assay type: ADME, organism-based, Sus scrofa; settings: in vivo
[6] = test system: Rattus norvegicus; assay: Reduction in food intake in Sprague-Dawley rat at 3 nmol/kg measured 24 to 48 hrs post dose relative to control; assay type: functional; parameters: scale not given: the % may be the effect or the level left
[7] = Solubility in 100 mM glycylglycine buffer at pH 5.0 incubated for 18 hrs by UPLC analysis; assay type: physicochemical
[8] = test system: Rattus norvegicus; assay: as §1, with “daily and co-treated with 0.1 mg/kg, sc liraglutide” for “daily”; assay type: functional; parameters: scale not given: the % may be the effect or the level left
[9] = test system: Rattus norvegicus; assay: Reduction in food intake in Sprague-Dawley rat at 3 nmol/kg measured 0 to 24 hrs post dose relative to control; assay type: functional; parameters: scale not given: the % may be the effect or the level left
[10] = molecular target: T1, Calcitonin receptor (Homo sapiens, UniProt P30988); assay: Agonist activity at human calcitonin receptor expressed in BHK570 cells assessed as increase in intracellular cAMP concentration incubated for 3 hrs in absence of albumin by CRE luciferase reporter gene assay; assay type: functional, cell-based
T1 sequence (P30988 whole entry): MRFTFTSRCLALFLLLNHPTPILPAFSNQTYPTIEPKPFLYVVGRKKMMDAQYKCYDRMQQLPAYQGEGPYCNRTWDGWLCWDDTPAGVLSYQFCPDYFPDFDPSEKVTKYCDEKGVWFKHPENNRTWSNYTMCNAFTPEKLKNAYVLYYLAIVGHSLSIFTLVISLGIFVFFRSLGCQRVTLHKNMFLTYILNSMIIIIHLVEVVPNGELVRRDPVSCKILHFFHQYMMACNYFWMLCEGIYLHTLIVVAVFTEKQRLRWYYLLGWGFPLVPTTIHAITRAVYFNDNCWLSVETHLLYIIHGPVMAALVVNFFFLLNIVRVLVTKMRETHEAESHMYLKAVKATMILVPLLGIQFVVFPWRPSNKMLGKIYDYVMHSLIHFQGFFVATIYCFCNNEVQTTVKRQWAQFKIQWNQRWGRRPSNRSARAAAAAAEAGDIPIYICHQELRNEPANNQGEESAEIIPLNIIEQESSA

[11] = Solubility in 100 mM bistrispropane buffer at pH 6.0 incubated for 18 hrs by UPLC analysis; assay type: physicochemical
[12] = test system: Rattus norvegicus; assay: as §1, with “daily and co-treated with 0.1 mg/kg, sc liraglutide” for “daily”, “28” for “15”; assay type: functional; parameters: scale not given: the % may be the effect or the level left
[13] = molecular target: T2, Amylin receptor AMY3; CALCR/RAMP3 (Homo sapiens, UniProt O60896+P30988); assay: Agonist activity at human amylin receptor expressed in BHK570 cells co-expressing RAMP3 assessed as increase in intracellular cAMP concentration incubated for 3 hrs in absence of albumin by CRE luciferase reporter gene assay; assay type: functional, cell-based
T2 sequence (P30988 whole entry): T1 sequence (P30988 whole entry)
T2 sequence (O60896 whole entry): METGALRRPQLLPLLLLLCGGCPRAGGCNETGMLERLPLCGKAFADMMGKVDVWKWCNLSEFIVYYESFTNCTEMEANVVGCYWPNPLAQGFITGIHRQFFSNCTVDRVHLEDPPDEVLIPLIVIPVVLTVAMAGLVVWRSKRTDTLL

[14] = Half life in LYD pig at 1.6 mM, sc co-dosed with 1.6 mM liraglutide by LC-MS analysis; assay type: ADME, organism-based, Sus scrofa; settings: in vivo
[15] = Solubility in 100 mM bistrispropane buffer at pH 8.0 incubated for 18 hrs by UPLC analysis; assay type: physicochemical
[16] = Solubility in 100 mM bistrispropane buffer at pH 6.5 incubated for 18 hrs by UPLC analysis; assay type: physicochemical
[17] = Solubility in 100 mM glycylglycine buffer at pH 3.0 incubated for 18 hrs by UPLC analysis; assay type: physicochemical
[18] = molecular target: T2, Amylin receptor AMY3; CALCR/RAMP3; assay: Displacement of [125I]-labeled rat amylin from human amylin receptor expressed in BHK tkts13 whole cells co-expressing RAMP3 incubated for 60 mins by scintillation proximity assay; assay type: cell-based
[19] = Dose normalized AUC in LYD pig at 1.6 mM, sc co-dosed with 1.6 mM liraglutide by LC-MS analysis; assay type: ADME, organism-based, Sus scrofa; settings: in vivo, 1600 µM
[20] = Solubility in 100 mM bistrispropane buffer at pH 7.0 incubated for 18 hrs by UPLC analysis; assay type: physicochemical
[21] = Solubility in 100 mM glycylglycine buffer at pH 4.0 incubated for 18 hrs by UPLC analysis; assay type: physicochemical
[22] = test system: Rattus norvegicus; assay: Reduction in body weight in Sprague-Dawley rat model of diet-induced obesity assessed as relative body weight at 0.1 mg/kg, sc dosed dosed once daily during 0 to 28 days and measured on day 28 relative to initial body weight (reference value: 99.8 +.- 1.1%); assay type: functional; parameters: scale not given: the % may be the effect or the level left

solubility at 18 h [1]: ≥ 200 µM
AUC/dose [2]: 732 kg·h/L
half-life at 1600 µM [5]: 2.79 days
solubility at 18 h [7]: ≥ 200 µM
EC50 [10]: 5 pM
solubility at 18 h [11]: ≥ 200 µM
EC50 [13]: 8 pM
half-life at 1600 µM [14]: 2.79 days
solubility at 18 h [15]: ≥ 200 µM
solubility at 18 h [16]: ≥ 200 µM
solubility at 18 h [17]: ≥ 200 µM
IC50 [18]: 0.902 nM
AUC/dose [19]: 712 kg·h/L
solubility at 18 h [20]: ≥ 200 µM
solubility at 18 h [21]: ≥ 200 µM
SMILES: CC(C)C[C@H](NC(=O)[C@H](C)NC(=O)[C@H](C)NC(=O)[C@@H](NC(=O)[C@H](CO)NC(=O)[C@H](CC(C)C)NC(=O)[C@H](CCC(=O)O)NC(=O)[C@H](CO)NC(=O)[C@H](C)NC(=O)[C@H](CCC(=O)O)NC(=O)CCCCCCCCCCCCCCCCC(=O)O)[C@@H](C)O)C(=O)NCC(=O)N[C@@H](CCCNC(=N)N)C(=O)N[C@@H](CC(C)C)C(=O)N[C@@H](CO)C(=O)N[C@@H](C)C(=O)N[C@@H](CCC(=O)O)C(=O)N[C@@H](CC(C)C)C(=O)N[C@@H](Cc1cnc[nH]1)C(=O)N[C@@H](CCC(=O)O)C(=O)N[C@@H](CC(C)C)C(=O)N[C@@H](C)C(=O)N[C@H](C(=O)N[C@@H](CC(C)C)C(=O)N1CCC[C@H]1C(=O)N[C@@H](CCCNC(=N)N)C(=O)N[C@H](C(=O)N[C@@H](CCC(=O)O)C(=O)N[C@H](C(=O)NCC(=O)N1CCC[C@H]1C(=O)N[C@@H](CCC(=O)O)C(=O)N[C@@H](CO)C(=O)N1CCC[C@H]1C(N)=O)[C@@H](C)O)[C@@H](C)O)[C@@H](C)O ({C18 diacid}-EASELSTAALGRLSAELHELATLPRTETGPESP-NH2)
Activity [3]: 90.6%
Activity [4]: 88.9%
Activity [6]: 60.67%
Activity [8]: 93.4%
Activity [9]: 79%
Activity [12]: 83.2%

SMILES: CCCCCCCCCCCCCCCC(=O)N[C@@H](CCC(=O)NCCCC[C@H](NC(=O)[C@H](C)NC(=O)[C@H](C)NC(=O)[C@H](CCC(N)=O)NC(=O)CNC(=O)[C@H](CCC(=O)O)NC(=O)[C@H](CC(C)C)NC(=O)[C@H](Cc1ccc(O)cc1)NC(=O)[C@H](CO)NC(=O)[C@H](CO)NC(=O)[C@@H](NC(=O)[C@H](CC(=O)O)NC(=O)[C@H](CO)NC(=O)[C@@H](NC(=O)[C@H](Cc1ccccc1)NC(=O)[C@@H](NC(=O)CNC(=O)[C@H](CCC(=O)O)NC(=O)[C@H](C)NC(=O)[C@@H](N)Cc1cnc[nH]1)[C@@H](C)O)[C@@H](C)O)C(C)C)C(=O)N[C@@H](CCC(=O)O)C(=O)N[C@@H](Cc1ccccc1)C(=O)N[C@H](C(=O)N[C@@H](C)C(=O)N[C@@H](Cc1c[nH]c2ccccc12)C(=O)N[C@@H](CC(C)C)C(=O)N[C@H](C(=O)N[C@@H](CCCNC(=N)N)C(=O)NCC(=O)N[C@@H](CCCNC(=N)N)C(=O)NCC(=O)O)C(C)C)[C@@H](C)CC)C(=O)O [LIRAGLUTIDE]
Activity [22]: 93.9%
